Patent publication US12533408B2, “Treatment regimen for the treatment of autoimmune disorders” (Merck Patent GmbH, priority 2020, dated 2026)
Values joined by “and” are separate entries in the source; they are usually repeats but may differ in a detail not shown here. Identical values can stand only once. “Also recorded” adds a separate entry of the source.

Columns and labels:
[1] = test system: lymphocytes; assay: Absolute lymphocyte count (ALC) in vaccinated MAGNIFY-MS patients; format: in vivo, human
[2] = test system: Influenza strain Victoria (Colorado/B); assay: Hemagglutination inhibition (HAI) antibody titer, Victoria (Colorado/B); format: in vivo, influenza B virus; conditions: 12 patients
[3] = test system: Influenza strain Yamagata (Phuket/B); assay: Hemagglutination inhibition (HAI) antibody titer, Yamagata (Phuket/B); format: in vivo, influenza B virus; conditions: 12 patients
[4] = test system: seasonal influenza; format: in vivo, influenza A and B
[5] = test system: varicella zoster virus (VZV); format: in vivo; conditions: all time points examined, MAGNIFY patients
[6] = test system: lymphocytes (ALC, CD19+ B, CD4+ T, CD8+ T); assay: Post hoc analysis of ALC, lymphocyte subsets and lymphopenia by age (CLARITY, CLARITY Extension, ORACLE-MS, PREMIERE)
Procedure: Assessments included incidence and severity of Grade ≥3 lymphopenia; severity of Grade ≥3 lymphopenia was defined based on the NCI CTCAE v3.0 toxicity grading system as ALC levels <500 cells/μL. The time to recover from Grade 3 lymphopenia to Grade ≤2 (ALC ≥500 cells/μL) and to Grade ≤1 (ALC ≥800 cells/μL) were also assessed. […] All assessments were performed for each baseline age group (≤50 years and >50 years).

[7] = TEAEs of viral and bacterial infections in patients with Grade ≥3 lymphopenia, by age; format: in vivo, human; conditions: for incidence of bronchitis / incidence of herpes zoster / incidence of pneumonia / incidence of respiratory tract infection: Grade ≥3 lymphopenia; for overall incidence of TEAEs of viral and bacterial infections: Weeks 0-96, Grade ≥3 lymphopenia
Procedure: The definitions used for before, during, and after lymphopenia were: before (before the start date of the first lymphopenia Grade ≥3), during (on or after the start date of the first lymphopenia up and including to the last date of the last lymphopenia), and after (after the end date of the last lymphopenia). The incidence of TEAEs were summarized by Preferred Term (PT) and were coded according to the MedDRA dictionary Version 20.0. All analyses were performed using Statistical Analysis Software (SAS®), Version 9.4 or higher.

[8] = test system: COVID-19; assay: COVID-19 cases in cladribine tablets treated MS patients (Merck KGaA Global Patient Safety Database); format: in vivo, human
Procedure: On this date, there were 46 patients with confirmed or suspected COVID-19 within the safety database. Patient age was available for 35 patients, with a range of 22-67 years. There were 26 females, 12 males, and 8 patients for whom gender was not reported. Cases were defined as confirmed if a confirmatory diagnostic test was reported as positive. If no confirmatory test was performed or reported, then cases were described as suspected. […] Cases were designated as serious if they fulfilled the criteria of hospitalized, considered to be life-threatening, or medically significant. In keeping with usual pharmacovigilance practices, outcome was classified as recovered, recovering, not recovered, fatal, or not reported.

[9] = test system: COVID-19; assay: COVID-19 course in CLARIFY-MS and MAGNIFY-MS patients (case reports); format: in vivo, human
Description: Disease course is reported for each of the 3 patients with respect to severity of symptoms, confirmatory status of COVID-19, hospitalisation requirement and recovery status.
Further to the overall outcome for each of the 3 patients from the phase IV studies CLARIFY-MS and MAGNIFY-MS, data on file includes some detail regarding extent and nature of symptoms COVID-19 and concomitant diseases and medications (Table 15).
Aside from COVID-19, no other adverse events or relevant concomitant diseases and medications are reported for Patient 3.

[10] = human, in vivo
[11] = test system: lymphocytes (ALC, CD19+ B, CD4+ T, CD8+ T); conditions: second treatment year (Giovannoni et al., 2010); cited from earlier work
[12] = clinical; conditions: human, plasma, po, 10 mg
[13] = test system: IgG and IgM; assay: Serum immunoglobulin levels (IgG, IgM) under cladribine tablets
[14] = Incidence rates of infections in the clinical trial program of cladribine tablets
[15] = Patient Canada VZV-70056800222530003, month 0, 9.7 wk after Shingrix, before first Mavenclad dose
[16] = Patient Canada VZV-70056800222530003, month 3, 23.0 wk after Shingrix, 13.3 wk after first Mavenclad dose

Nc1nc(Cl)nc2c1ncn2[C@H]1C[C@H](O)[C@@H](CO)O1 [cladribine tablets, Cladribine]
absolute lymphocyte levels ([1]; Patient 70056800222010002, month 14, 1 month after vaccination): 700 cells/µL
absolute lymphocyte levels ([1]; Patient 70056800227010005, Month 6): 900 cells/µL
ALC ([1]; Patient Australia VZV-70056800221260001, month 2, 21.0 wk after Zostavax, 11.1 wk after first Mavenclad dose): 960 cells/μL
ALC ([1]; Patient Canada VZV-70056800222530003, Scr, 1.1 wk after Shingrix, 8.6 wk before first Mavenclad dose): 2,100 cells/μL
ALC ([1]; Patient Canada VZV-70056800222530003, month 2, 18.0 wk after Shingrix, 8.3 wk after first Mavenclad dose): 800 cells/μL
ALC ([1]; Patient Canada VZV-70056800222530003, month 12): 1,110 cells/μL
ALC ([1]; Patient Finland VZV-70056800221620004, month 2, 14.3 wk after Zostavax, 7.9 wk after first Mavenclad dose): 670 cells/μL
lymphocytes after first treatment course ([1]; Shingrix case): 800 cells/µL
2-fold change [2]: 17%
4-fold change [2]: 8%
Post-vacc seroprotection [2]: 92%
Pre-vacc seroprotection [2]: 83%
2-fold change [3]: 17%
4-fold change [3]: 0%
Post-vacc seroprotection [3]: 92%
Pre-vacc seroprotection [3]: 75%
proportion of previously seropositive patients (HAI≥40) with ≥2-fold increase against at least 1 strain ([4]; 8 patients): 87.5%
proportion of previously seropositive patients (HAI≥40) with ≥4-fold increase against at least 1 strain ([4]; 8 patients): 37.5%
post-vaccination seroprotection, all Influenza strains ([4]; all vaccinated patients): 92-100%
rate of 2-fold change in AB titer, all strains ([4]; in vivo): 17-67%
post-vaccination antibody titer against VZV, protective titer [5]: ≥ 100 IU/L
Median (range) time to recovery from the first Grade ≥3 lymphopenia to Grade ≤1 ([6]; Age >50): 6.06 (range: 0.2-46.5) months
Median (range) time to recovery from the first Grade ≥3 lymphopenia to Grade ≤2 ([6]; Age >50): 1.54 (range: 0.2-29.9) months
mean (SD) number of episodes of recovery from Grade ≥3 lymphopenia to Grade ≤1 per patient ([6]; Age >50): 1.3 (0.5)
Median (range) time to recovery from the first Grade ≥3 lymphopenia to Grade ≤1 ([6]; Age ≤50): 5.49 (range: 0.2-88.4) months
Median (range) time to recovery from the first Grade ≥3 lymphopenia to Grade ≤2 ([6]; Age ≤50): 1.18 (range: 0.2-22.3) months
mean (SD) number of episodes of recovery from Grade ≥3 lymphopenia to Grade ≤1 per patient ([6]; Age ≤50): 1.2 (0.5)
ALC decrease from baseline ([6]; Week 9, Age >50): 52.4%
CD8+ T lymphocytes decrease from baseline ([6]; Week 9, Age >50): 43.4%
CD19+ B lymphocytes decrease from baseline ([6]; Week 9, Age >50): 93.8%
median (range) ALC at Year 1 nadir ([6]; Week 9, Age >50): 0.9 (0.3-2.5) ×10^9 cells/L
ALC decrease from baseline ([6]; Week 9, Age ≤50): 43.5%
CD19+ B lymphocytes decrease from baseline ([6]; Week 9, Age ≤50): 90.2%
median (range) ALC at Year 1 nadir ([6]; Week 9, Age ≤50): 1.05 (0.2-6.7) ×10^9 cells/L
CD4+ T lymphocytes decrease from baseline ([6]; Week 60, Age ≤50): 66.4%
CD4+ T lymphocytes decrease from baseline ([6]; Week 72, Age >50): 73.7%
CD8+ T lymphocytes decrease from baseline ([6]; Week 72, Age ≤50): 41.8%
incidence of Grade ≥3 lymphopenia ([6]; Weeks 0-96, Age >50 (30/110)): 27.2%
incidence of Grade ≥3 lymphopenia ([6]; Weeks 0-96, Age ≤50 (205/813)): 25.2%
Grade 4 lymphopenia episodes ([6]; Year 1): No Grade 4 lymphopenia episodes
Grade ≥3 lymphopenia, patients ([6]; Year 2, Age >50): 20.0%
Grade ≥3 lymphopenia, patients ([6]; Year 2, Age ≤50): 18.7%
Grade 4 lymphopenia, patients ([6]; Year 2, aged >50 years (1 patient)): 1.0%
Grade 4 lymphopenia, patients ([6]; Year 2, aged ≤50 years (2 patients)): 0.3%
ALC decrease from baseline ([6]; Year 2 nadir, Age >50): 58.2%
ALC decrease from baseline ([6]; Year 2 nadir, Age ≤50): 55.4%
recovery of ALC and lymphocyte subsets (CD19+ B and CD4+ T) to normal levels ([6]; after last dose in treatment year 2): 30-43 weeks
Grade ≥3 lymphopenia, patients ([6]; treatment Year 1, Age >50): 10.0%
Grade ≥3 lymphopenia, patients ([6]; treatment Year 1, Age ≤50): 8.3%
TEAEs of viral and bacterial infections during the Year 1 Grade ≥3 lymphopenia episode ([7]; Age >50): 30%
patients with TEAEs severe in intensity (pneumonia and bronchitis) ([7]; Age >50 (1 patient)): 3.3%
patients with TEAEs mild to moderate in intensity ([7]; Age >50 (16 patients)): 53.3%
TEAEs of viral and bacterial infections during the Year 1 Grade ≥3 lymphopenia episode ([7]; Age ≤50): 21.5%
patients with TEAEs mild to moderate in severity ([7]; Age ≤50 (103 patients)): 50.2%
incidence of bronchitis ([7]; Age >50): 10%
incidence of herpes zoster ([7]; Age >50): 13.3%
incidence of pneumonia ([7]; Age >50): 6.7%
incidence of respiratory tract infection ([7]; Age >50): 6.7%
incidence of bronchitis ([7]; Age ≤50): 5.9%
incidence of herpes zoster ([7]; Age ≤50): 3.4%
incidence of pneumonia ([7]; Age ≤50): 1.0%
incidence of respiratory tract infection ([7]; Age ≤50): 1.5%
overall incidence of TEAEs of viral and bacterial infections ([7]; Age >50 (17/30)): 56.7%
overall incidence of TEAEs of viral and bacterial infections ([7]; Age ≤50 (105/205)): 51.2%
most recent lymphocyte count, median ([8]; 9/46 patients, min 0.24, max 1.2): 0.7 G/L
median time to onset of COVID-19 from last dose ([8]; 21/46 patients): 180 days
range of time to onset of COVID-19 from last dose ([8]; 21/46 patients): 3 to 559 days
COVID-19 cases medically significant ([8]; confirmed cases): 1 cases
COVID-19 cases requiring hospitalisation ([8]; confirmed cases): 3 cases
COVID-19 outcome: Not resolved ([8]; confirmed cases): 1 cases
COVID-19 outcome: Recovered ([8]; confirmed cases): 8 cases
COVID-19 outcome: Recovering ([8]; confirmed cases): 2 cases
confirmed COVID-19 cases ([8]; of 46 total cases): 18 cases
suspected COVID-19 cases ([8]; of 46 total cases): 28 cases
patients with confirmed or suspected COVID-19 ([8]; of approximately 19,000 treated, as of 29 June 2020): 46 patients
lymphocyte count between most recent course and onset of COVID-19 ([8]; patient from the Netherlands): 0.87 G/L
COVID-19 cases medically significant ([8]; suspected cases): 1 cases
COVID-19 cases requiring hospitalisation ([8]; suspected cases): 1 cases
COVID-19 outcome: Recovered ([8]; suspected cases): 6 cases
COVID-19 outcome: Recovering ([8]; suspected cases): 5 cases
COVID-19 cases that received mechanical ventilation ([8]; suspected or confirmed): None
COVID-19 deaths ([8]; suspected or confirmed): no deaths
COVID-19 symptoms in the majority of patients ([8]; suspected or confirmed): mild to moderate respiratory symptoms
Lymphocyte counts ([9]; BL (baseline), c1-c3 = Patient 1, 2 (CLARIFY-MS), 3 (MAGNIFY-MS)): 1.48 G/L and 2.80 G/L and 2.39 G/L
Lymphocyte counts ([9]; M14 (January 2020), Patient 1): 0.49 G/L
Lymphocyte counts ([9]; Uns v. (17 Mar. 2020), Patient 2): 0.20 G/L
Adverse events ([9]; c1-c3 = Patient 1, 2, 3): Asthmatic bronchitis and Tachycardia and None and Swollen glands and Angina pectoris and Poss. reaction of EBV -
COVID-19 severity ([9]; c1-c3 = Patient 1, 2, 3): SAE, Severe,; also recorded: Mild, not serious (no
herpes zoster incidence [10]: 0.83 episodes per 100 PY
incidence rate of serious infections [10]: 0.8 /100 PY
incidence rate of total infections [10]: 24.9 events per 100 patient-years (PY)
median ALC [11]: above 800 cells/mL
bioavailability [12]: 45.6%
IgG immunoglobulin levels vs baseline ([13]; 1, 2, 3, 6 and 12 month): comparable to baseline
IgG, change vs baseline ([13]; Month 3): +10%
IgM, change vs baseline ([13]; Month 3): −5%
IgG, change vs baseline ([13]; Month 6): +11%
IgM, change vs baseline ([13]; Month 6): −13%
IgG, change vs baseline ([13]; Month 12): +3%
IgM, change vs baseline ([13]; Month 12): +21%
IgG levels ([13]; Patient 70056800222520001): not affected
IgG immunoglobulin levels ([13]; Patient 70056800227010005, any timepoint after treatment): not affected
IgM ([13]; Patient Australia VZV-70056800221260001, month 3, 24.6 wk after Zostavax, 14.7 wk after first Mavenclad dose): 59 mg/dL
IgG [13, 15]: 1,410 mg/dL
IgM [13, 15]: 190 mg/dL
IgG [13, 16]: 1,510 mg/dL
IgM [13, 16]: 166 mg/dL
IgM levels ([13]; month 12, still in the normal range): slightly decreased
immunoglobulin numbers after cladribine treatment ([13]; various time points): not decreased
influenza incidence ([14]; lymphopenia grade 0-2): 2.75 cases per 100 PY
influenza incidence ([14]; lymphopenia grade 3-4): 3.35 /100 PY
